Test results taken from patent US8192962B2, “Processes for detecting toxic substances” (Daikin Industries, Ltd., priority 2001, dated 2012).

System: Genes belonging to other category
Assay: DNA chip mRNA expression in yeast, genes belonging to other category (Table 9)
Format: cell-based, Saccharomyces cerevisiae S288C
In short: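 Chemical exposure: 2 h, log-phase S. cerevisiae S288C, YPD, 25° C., dose set to inhibit growth without death. Profiling: mRNA labeled by reverse transcription with Cy3- or Cy5-dUTP, hybridized to whole-genome array. Output: fluorescence ratio against untreated culture.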

## Na2As [(1)]
Yeast gene YAR010C
  The level of expressed mRNA in the presence of chemical substance/The level of expressed mRNA in the absence of chemical substance: 0.8
Yeast gene YBL005W-A
  The level of expressed mRNA in the presence of chemical substance/The level of expressed mRNA in the absence of chemical substance: 1.0
Yeast gene YBL041W
  The level of expressed mRNA in the presence of chemical substance/The level of expressed mRNA in the absence of chemical substance: 1.2
Yeast gene YBL043W
  The level of expressed mRNA in the presence of chemical substance/The level of expressed mRNA in the absence of chemical substance: 1.2
Yeast gene YBL078C
  The level of expressed mRNA in the presence of chemical substance/The level of expressed mRNA in the absence of chemical substance: 2.3
Yeast gene YBR214W
  The level of expressed mRNA in the presence of chemical substance/The level of expressed mRNA in the absence of chemical substance: 0.9
Yeast gene YCL020W
  The level of expressed mRNA in the presence of chemical substance/The level of expressed mRNA in the absence of chemical substance: 1.1
Yeast gene YCL027W
  The level of expressed mRNA in the presence of chemical substance/The level of expressed mRNA in the absence of chemical substance: 0.7
Yeast gene YCR004C
  The level of expressed mRNA in the presence of chemical substance/The level of expressed mRNA in the absence of chemical substance: 1.7
Yeast gene YCR071C
  The level of expressed mRNA in the presence of chemical substance/The level of expressed mRNA in the absence of chemical substance: 1.1
Yeast gene YCR088W
  The level of expressed mRNA in the presence of chemical substance/The level of expressed mRNA in the absence of chemical substance: 0.9
Yeast gene YDL008W
  The level of expressed mRNA in the presence of chemical substance/The level of expressed mRNA in the absence of chemical substance: 1.1
Yeast gene YDL238C
  The level of expressed mRNA in the presence of chemical substance/The level of expressed mRNA in the absence of chemical substance: 0.7
Yeast gene YDR055W
  The level of expressed mRNA in the presence of chemical substance/The level of expressed mRNA in the absence of chemical substance: 1.7
Yeast gene YDR084C
  The level of expressed mRNA in the presence of chemical substance/The level of expressed mRNA in the absence of chemical substance: 0.9
Yeast gene YDR085C
  The level of expressed mRNA in the presence of chemical substance/The level of expressed mRNA in the absence of chemical substance: 1.9
Yeast gene YDR104C
  The level of expressed mRNA in the presence of chemical substance/The level of expressed mRNA in the absence of chemical substance: 0.8
Yeast gene YDR115W
  The level of expressed mRNA in the presence of chemical substance/The level of expressed mRNA in the absence of chemical substance: 1.3
Yeast gene YDR259C
  The level of expressed mRNA in the presence of chemical substance/The level of expressed mRNA in the absence of chemical substance: 1.4
Yeast gene YDR315C
  The level of expressed mRNA in the presence of chemical substance/The level of expressed mRNA in the absence of chemical substance: 1.0
Yeast gene YDR358W
  The level of expressed mRNA in the presence of chemical substance/The level of expressed mRNA in the absence of chemical substance: 0.7
Yeast gene YDR388W
  The level of expressed mRNA in the presence of chemical substance/The level of expressed mRNA in the absence of chemical substance: 0.7
Yeast gene YDR432W
  The level of expressed mRNA in the presence of chemical substance/The level of expressed mRNA in the absence of chemical substance: 0.5
Yeast gene YDR481C
  The level of expressed mRNA in the presence of chemical substance/The level of expressed mRNA in the absence of chemical substance: 0.7
Yeast gene YDR510W
  The level of expressed mRNA in the presence of chemical substance/The level of expressed mRNA in the absence of chemical substance: 1.0
Yeast gene YEL042W
  The level of expressed mRNA in the presence of chemical substance/The level of expressed mRNA in the absence of chemical substance: 0.6
Yeast gene YEL066W
  The level of expressed mRNA in the presence of chemical substance/The level of expressed mRNA in the absence of chemical substance: 2.0
Yeast gene YER039C
  The level of expressed mRNA in the presence of chemical substance/The level of expressed mRNA in the absence of chemical substance: 1.0
Yeast gene YER107C
  The level of expressed mRNA in the presence of chemical substance/The level of expressed mRNA in the absence of chemical substance: 0.9
Yeast gene YER130C
  The level of expressed mRNA in the presence of chemical substance/The level of expressed mRNA in the absence of chemical substance: 0.9
Yeast gene YFL022C
  The level of expressed mRNA in the presence of chemical substance/The level of expressed mRNA in the absence of chemical substance: 0.8
Yeast gene YFL028C
  The level of expressed mRNA in the presence of chemical substance/The level of expressed mRNA in the absence of chemical substance: 1.2
Yeast gene YFL043C
  The level of expressed mRNA in the presence of chemical substance/The level of expressed mRNA in the absence of chemical substance: 1.0
Yeast gene YGL158W
  The level of expressed mRNA in the presence of chemical substance/The level of expressed mRNA in the absence of chemical substance: 1.1
Yeast gene YGL229C
  The level of expressed mRNA in the presence of chemical substance/The level of expressed mRNA in the absence of chemical substance: 0.6
Yeast gene YGR136W
  The level of expressed mRNA in the presence of chemical substance/The level of expressed mRNA in the absence of chemical substance: 0.9
Yeast gene YGR189C
  The level of expressed mRNA in the presence of chemical substance/The level of expressed mRNA in the absence of chemical substance: 1.1
Yeast gene YGR213C
  The level of expressed mRNA in the presence of chemical substance/The level of expressed mRNA in the absence of chemical substance: 5.4
Yeast gene YGR257C
  The level of expressed mRNA in the presence of chemical substance/The level of expressed mRNA in the absence of chemical substance: 0.7
Yeast gene YHR004C
  The level of expressed mRNA in the presence of chemical substance/The level of expressed mRNA in the absence of chemical substance: 0.9
Yeast gene YHR071W
  The level of expressed mRNA in the presence of chemical substance/The level of expressed mRNA in the absence of chemical substance: 1.5
Yeast gene YHR139C
  The level of expressed mRNA in the presence of chemical substance/The level of expressed mRNA in the absence of chemical substance: 3.0
Yeast gene YHR142W
  The level of expressed mRNA in the presence of chemical substance/The level of expressed mRNA in the absence of chemical substance: 1.5
Yeast gene YIL123W
  The level of expressed mRNA in the presence of chemical substance/The level of expressed mRNA in the absence of chemical substance: 1.0
Yeast gene YIL140W
  The level of expressed mRNA in the presence of chemical substance/The level of expressed mRNA in the absence of chemical substance: 0.7
Yeast gene YJL073W
  The level of expressed mRNA in the presence of chemical substance/The level of expressed mRNA in the absence of chemical substance: 0.8
Yeast gene YJL089W
  The level of expressed mRNA in the presence of chemical substance/The level of expressed mRNA in the absence of chemical substance: 1.1
Yeast gene YJL116C
  The level of expressed mRNA in the presence of chemical substance/The level of expressed mRNA in the absence of chemical substance: 0.9
Yeast gene YJR004C
  The level of expressed mRNA in the presence of chemical substance/The level of expressed mRNA in the absence of chemical substance: 0.2
Yeast gene YJR086W
  The level of expressed mRNA in the presence of chemical substance/The level of expressed mRNA in the absence of chemical substance: 1.2
